Measured values reported in patent US20180235904A1, “CANNABIDIOL COMPOSITIONS INCLUDING MIXTURES AND USES THEREOF” (EARTH SCIENCE TECH, INC., priority 2014, published 2018).

Test system: RAW264.7 macrophages
Assay: Stimulation of macrophages, TNFα production (ELISA)
Assay type: cell-based, mouse
Conditions: 24 h
Method: RAW264.7, a mouse macrophage-like cell line, was used. The cells were cultured in DMEM, supplemented with 10% fetal calf serum (FCS), in 5% CO2, 95% air, at 37° C. in an humidified incubator.
The stimulation of macrophages was assessed by TNFα production, using a mouse TNFα ELISA kit.
To study the effects of hemp oil on macrophages, cells were seeded in a 24-well plate (2×10^5 cell/well) in 1-ml medium in each well for 12 h, and then incubated with hemp oil solution of different CBD concentrations (0-10 μM) for 24 h. Cell supernatant was collected for ELISA analysis.
After the macrophages were incubated with hemp oil of different CBD concentrations (0, 1, 2.5, 5, 10 μM), the TNFα production by the cells was detected.

## C=C(C)[C@@H]1CCC(C)=C[C@H]1c1c(O)cc(CCCCC)cc1O [CBD, Cannabidiol]
CBD concentration of 10 μM
  TNFα production: induced TNFα production at a significantly higher level
CBD concentration range of 0 to 5 μM
  impact on macrophages (TNFα production): not significant
